Values of other authors, collected in PMC12356143 (RSC Medicinal Chemistry, 2025).

Tests used:
[1] = test system: FIPV M^pro; details: literature value; cited from earlier work
[2] = test system: M^pro WT; details: literature value; cited from earlier work

| Molecule | IC50 [1] [µM] | K M [2] | k cat [2] |
| --- | --- | --- | --- |
| O=C(NC(CC1CC1)C(=O)NC(CC1CCNC1=O)C(O)S(=O)(=O)O)OCCc1cccc(Cl)c1 (stereo not shown) [compound 5] | 0.05 ± 0.02 |  |  |
| COc1cccc2[nH]c(C(=O)NC(CC3CC3)C(=O)NC(CC3CCNC3=O)C(O)S(=O)(=O)O)cc12 (stereo not shown) [compound 4] | 0.06 ± 0.02 |  |  |
| 2-Abz-SVTLQ↓SGY^(NO2)R-OH |  | 80 × 10^−6 (lit. [10]) M | 2.25 ± 0.1 (lit. [10]) s^−1 |
| CC(C)CC(NC(=O)OCc1ccccc1)C(=O)NC(CC1CCNC1=O)C(O)S(=O)(=O)O (stereo not shown) [GC376] | 0.13 ± 0.02 |  |  |
| Dabcyl-KTSAVLQ↓SGFRKME(Edans)-NH2 [Dabcyl-KTSAVLQ↓S GFRKME(Edans)-NH2] |  | 4.6 × 10^−6 (lit. [23]) M | 0.29 ± 0.03 (lit. [23]) s^−1 |
